The text below walks through data of US7572811B2, “Immunosuppressant compounds and compositions” (IRM LLC, priority 2004, dated 2009).

Each structure is given as a SMILES string. Where two headings read alike, the source gives them in different places. Bounds are passed on as bounds.

One test has as its target T1, human EDG-1 (S1P-1) (Homo sapiens, UniProt P21453).
T1 construct: c-myc (N); expressed in transfected cells; host or cells: CHO cell clones (membrane preparation)
As to the kind of experiment: EDG-1 (S1P1) GTP [γ-35S] binding SPA assay. It counts as biochemical. Particulars: for EC50: GTP [γ-35S] binding, CHO cell membranes. The procedure: (§1) A. In Vitro: A Scintillation Proximity Assay (SPA) for Measuring GTP [γ-^35S] Binding to Membranes Prepared from CHO Cells Expressing Human EDG/S1P Receptors
(§2) EDG-1 (S1P1) GTP [γ-^35S] binding assay: Membrane protein suspensions are prepared from CHO cell clones stably expressing a human EDG-1 N-terminal c-myc tag. Solutions of test compounds ranging from 10 mM to 0.01 nM are prepared in DMSO/50 mM HCl and then diluted into assay buffer (20 mM HEPES, pH7.4, 100 mM NaCl, 10 mM MgCl2, 0.1% fat free BSA). Assay buffer containing 10 mM GDP is mixed with wheat germ agglutinin-coated SPA-beads (1 mg/well) followed by the addition of human EDG-1 membrane protein suspension (10 μg/well) and test compound. The bead/membrane/compound assay components are then mixed for 10-15 minutes on a shaker at room temperature. GTP [γ-^35S] (200 pM) and bead/membrane/compound assay mixture are added to individual wells of a 96 well Optiplate™ (final volume 225 μl/well), sealed and incubated at room temperature for 110 to 120 minutes under constant shaking. After centrifugation (2000 rpm, 10 minutes) luminescence is measured with a TopCount™ instrument.
EC50 values are obtained by fitting the GTP [γ-^35S] binding curves (raw data) with the dose response curve-fitting tool of ORIGIN V. 6.1. Basal binding (no compound) and the highest stimulation of GTP [γ-^35S] binding achieved by an agonist are used as the fitting range. Seven different concentrations are used to generate a concentration response curve (using two or three data points per concentration).
Concentrations of EDG receptor expressing membranes range between 13-19 μg per well.

The test system of test [1] is peripheral blood lymphocytes. Briefly: Measurement of circulating lymphocytes (blood lymphocyte depletion). As to conditions: Mus musculus, mice, oral gavage, read-out: ED50 (effective dose for 50% blood lymphocyte depletion). It counts as in vivo, Mice (C57bl/6 male). The procedure: C. In Vivo: Screening Assays for Measurement of Blood Lymphocyte Depletion and Assessment of Heart Effect
Measurement of circulating lymphocytes: Compounds are dissolved in DMSO and diluted to obtain a final concentration of 4% DMSO (v/v, final concentration) and then further diluted in a constant volume of Tween80 25%/H2O, v/v. Tween80 25%/H2O (200 μl), 4% DMSO, and FTY720 (10 μg) are included as negative and positive controls, respectively. Mice (C57bl/6 male, 6-10 week-old) are administered 250-300 μL of compound solution orally by gavages under short isoflurane anesthesia.
[…] Whole blood samples are subjected to hematology analysis. Peripheral lymphocyte counts are determined using an automated analyzer. Subpopulations of peripheral blood lymphocytes are stained by fluorochrome-conjugated specific antibodies and analyzed using a fluorescent activating cell sorter (Facscalibur). Two mice are used to assess the lymphocyte depletion activity of each compound screened. The result is an ED50, which is defined as the effective dose required displaying 50% of blood lymphocyte depletion.

In the next test the target is T2, S1P-2 (EDG-5) (Homo sapiens, UniProt O95136).
T2 construct: expressed in transfected cells; host or cells: CHO cells (membrane preparation)
T2 sequence (O95136 whole entry): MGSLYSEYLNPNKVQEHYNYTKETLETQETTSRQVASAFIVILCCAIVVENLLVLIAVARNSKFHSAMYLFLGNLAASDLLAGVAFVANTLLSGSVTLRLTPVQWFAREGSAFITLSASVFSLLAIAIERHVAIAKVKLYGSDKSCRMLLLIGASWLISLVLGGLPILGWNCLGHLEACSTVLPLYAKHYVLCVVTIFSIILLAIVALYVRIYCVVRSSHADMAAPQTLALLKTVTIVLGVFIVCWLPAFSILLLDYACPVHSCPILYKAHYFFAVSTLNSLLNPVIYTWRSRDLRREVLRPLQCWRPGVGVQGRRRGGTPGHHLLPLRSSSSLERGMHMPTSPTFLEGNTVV
Briefly: EDG-5 GTP [γ-35S] binding SPA assay. It is filed as biochemical. The procedure: as §1, §2
(§3) EC50 values are obtained by fitting the GTP [γ-^35S] binding curves (raw data) with the dose response curve-fitting tool of ORIGIN V. 6.1. […]

The next test concerns the target S1P-3 (EDG-3) (Homo sapiens, UniProt Q99500). Briefly: EDG-3 GTP [γ-35S] binding SPA assay. It counts as biochemical. The procedure: as §1, §2, §3
For another test, the target named is T3, S1P-4 (EDG-6) (Homo sapiens, UniProt O95977).
T3 sequence (O95977 1-384): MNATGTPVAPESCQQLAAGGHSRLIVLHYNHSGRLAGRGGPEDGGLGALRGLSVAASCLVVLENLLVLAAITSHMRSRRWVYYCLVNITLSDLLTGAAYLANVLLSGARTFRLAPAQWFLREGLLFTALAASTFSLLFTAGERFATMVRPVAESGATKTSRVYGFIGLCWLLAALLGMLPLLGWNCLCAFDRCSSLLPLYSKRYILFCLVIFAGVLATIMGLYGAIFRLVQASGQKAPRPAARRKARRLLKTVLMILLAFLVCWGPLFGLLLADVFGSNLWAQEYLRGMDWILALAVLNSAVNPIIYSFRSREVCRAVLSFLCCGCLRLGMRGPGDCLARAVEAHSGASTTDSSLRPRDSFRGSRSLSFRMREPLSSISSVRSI
Briefly: EDG-6 GTP [γ-35S] binding SPA assay. It counts as biochemical. The procedure:
as §1, §2, §3

The next test concerns the target T4, S1P-5 (EDG-8) (Homo sapiens, UniProt Q9H228).
T4 construct: expressed in transfected cells; host or cells: RE7777 cells as printed (membrane preparation)
Briefly: EDG-8 GTP [γ-35S] binding SPA assay. It is filed as biochemical. The procedure:
as §1, §2, §3

T1 sequence (P21453 whole entry): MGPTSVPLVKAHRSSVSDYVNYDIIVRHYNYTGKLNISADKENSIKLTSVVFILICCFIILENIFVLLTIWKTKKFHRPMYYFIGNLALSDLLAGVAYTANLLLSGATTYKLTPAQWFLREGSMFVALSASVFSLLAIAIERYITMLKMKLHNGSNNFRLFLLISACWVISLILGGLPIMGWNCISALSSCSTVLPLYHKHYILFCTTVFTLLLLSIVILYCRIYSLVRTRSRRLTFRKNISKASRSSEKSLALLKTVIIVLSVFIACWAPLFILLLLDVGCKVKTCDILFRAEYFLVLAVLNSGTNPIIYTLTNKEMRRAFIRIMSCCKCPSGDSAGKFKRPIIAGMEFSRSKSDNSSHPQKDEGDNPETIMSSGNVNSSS
T4 sequence (Q9H228 whole entry): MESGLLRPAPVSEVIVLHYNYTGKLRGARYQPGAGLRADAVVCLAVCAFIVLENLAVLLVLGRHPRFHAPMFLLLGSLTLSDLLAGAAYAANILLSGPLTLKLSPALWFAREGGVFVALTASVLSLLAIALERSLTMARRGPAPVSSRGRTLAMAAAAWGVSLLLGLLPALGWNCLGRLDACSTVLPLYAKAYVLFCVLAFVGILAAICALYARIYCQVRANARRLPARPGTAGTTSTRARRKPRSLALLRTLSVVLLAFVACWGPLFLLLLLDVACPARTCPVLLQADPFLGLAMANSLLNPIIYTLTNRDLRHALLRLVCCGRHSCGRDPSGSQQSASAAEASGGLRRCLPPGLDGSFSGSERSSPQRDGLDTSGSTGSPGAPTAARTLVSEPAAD
Chain of S1P-3 (EDG-3) (Q99500 whole entry): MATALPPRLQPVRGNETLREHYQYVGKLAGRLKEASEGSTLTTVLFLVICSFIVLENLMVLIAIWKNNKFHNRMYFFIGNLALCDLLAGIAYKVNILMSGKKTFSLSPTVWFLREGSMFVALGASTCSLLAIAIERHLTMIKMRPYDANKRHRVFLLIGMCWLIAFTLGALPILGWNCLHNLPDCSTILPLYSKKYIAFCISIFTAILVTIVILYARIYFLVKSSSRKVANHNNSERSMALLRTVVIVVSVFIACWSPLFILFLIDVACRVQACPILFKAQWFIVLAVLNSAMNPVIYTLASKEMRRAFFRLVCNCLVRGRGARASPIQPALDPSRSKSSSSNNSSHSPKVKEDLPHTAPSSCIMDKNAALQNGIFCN

What is called EC50 is the concentration needed to bring the measured effect to its halfway point. High values mean a less potent agent, low ones a more potent agent. Broadly, the ED50 is the dose at which the effect has come halfway, by size or by number of responders. Regarding `Cc1cc(OCc2ccc(C3CCN(CCC(=O)O)CC3)cc2)ccc1C1CCCCC1` [Example 1, 3-{4-[4-(4-Cyclohexyl-3-methyl-phenoxymethyl)-phenyl]-piperidin-1-yl}-propionic acid], the EC50 at human EDG-1 (S1P-1) is 0.22 nM. Besides, at human EDG-1 (S1P-1) (versus S1P-3, S1P-5, S1P-6 and S1P-8 as printed), the “selectivity for S1P-1 compared to one or more of the other receptors” value was “at least 1000 fold”. The ED50 in test [1] (time point not stated) amounted to 0.1 mg/kg.
As for `Cc1cc(OCc2ccc(C3CCN(CCC(=O)O)CC3)cc2)ccc1-c1ccccc1` [Example 8, 3-{4-[4-(2-Methyl-biphenyl-4-yloxymethyl)-phenyl]-piperidin-1-yl}-propionic acid], the EC50 at human EDG-1 (S1P-1) was 2 nM; on S1P-2 (EDG-5), over 10000 nM; at S1P-3 (EDG-3) it was 2000 nM; at S1P-4 (EDG-6), over 10000 nM; at S1P-5 (EDG-8), 370 nM. The ED50 in test [1] (at 6 hours) is 0.2 mg/kg; in test [1] (at 48 hours), 0.8 mg/kg.
